Patent US8513423B2 (Janssen Pharmaceutica, NV, priority 2010, dated 2013)
Residue numbers refer to the chain shown, from its start. Where two headings read alike, the source gives them in different places.

Legend:
mutant MGL = biological target: T1, mutant MGL (Homo sapiens, UniProt Q99685, L169S/L176S); assay: MGL ThermoFluor assay - mutant; type: binding
T1 construct: purified mutant MGL (mut-MGLL 11-313 L179S L186S)
T1 sequence (Q99685 1-303 L169S/L176S): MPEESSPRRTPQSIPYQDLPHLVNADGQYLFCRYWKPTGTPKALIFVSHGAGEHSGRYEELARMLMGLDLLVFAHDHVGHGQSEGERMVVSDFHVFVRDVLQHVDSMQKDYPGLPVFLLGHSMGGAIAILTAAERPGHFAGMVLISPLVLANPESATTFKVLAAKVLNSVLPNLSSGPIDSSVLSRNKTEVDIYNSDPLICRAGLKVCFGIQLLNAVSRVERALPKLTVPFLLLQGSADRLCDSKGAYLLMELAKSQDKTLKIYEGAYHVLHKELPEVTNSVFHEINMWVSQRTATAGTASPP
Method in brief: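 Thermal shift binding with 0.07 mg/ml L169S/L176S MGL, 100 μM 1,8-ANS, 200 mM NaCl, 0.001% Tween-20, 50 mM PIPES pH 7.0. Heated 40–90 °C at 1 °C/min, fluorescence (em 500 nm) tracked to give Tm; Kd fitted from 11-point concentration–Tm response, qKd when stocks quantified by qNMR.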

MGL = biological target: T2, MGL (Rattus norvegicus, UniProt Q8R431); assay: 2-AG accumulation assay in rat brain homogenate; type: biochemical; conditions: compound @1 μM, read-out: Rat Brain 2AG % VehCntrl (%) @1 μM
T2 construct: one g rat brain was homogenized; from tissue; host or cells: rat brain homogenate
T2 sequence (Q8R431 1-303): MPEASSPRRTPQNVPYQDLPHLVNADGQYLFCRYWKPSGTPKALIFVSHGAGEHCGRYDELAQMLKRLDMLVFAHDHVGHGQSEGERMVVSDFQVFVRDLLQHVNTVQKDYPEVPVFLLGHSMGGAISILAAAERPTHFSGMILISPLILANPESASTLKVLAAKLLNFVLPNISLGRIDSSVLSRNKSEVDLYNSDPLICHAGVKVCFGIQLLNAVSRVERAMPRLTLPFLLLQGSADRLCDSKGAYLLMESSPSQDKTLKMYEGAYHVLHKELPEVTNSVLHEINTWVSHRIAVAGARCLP
Method in brief: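 Rat brain homogenate was incubated with compound for 15 min at 37° C., after which CaCl2 was added to a final concentration of 10 mM. Incubation then continued for another 15 min at 37° C. in 5 mL total volume. Reactions were stopped by adding 6 mL of 2:1 chloroform/methanol. 2-AG in the organic phase was quantified by HPLC/MS.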

[1] = biological target: T3, purified wild type MGL (wt-MGLL 6H-11-313) (Homo sapiens, UniProt Q99685); assay: MGL enzyme activity assay (4MU-B cleavage), wild type MGL; type: biochemical; conditions: 10 μM 4MU-B, 5 nM enzyme, 37° C., read-out: MGL wild type inh IC50
T3 construct: purified wild type MGL (wt-MGLL 6H-11-313)
T3 sequence (Q99685 1-303): T1 sequence (Q99685 1-303 L169S/L176S) with S169L, S176L
Method in brief: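 Enzyme (5 nM final) cleaved 4MU-B (10 μM final) in 20 mM PIPES pH 7.0 with 150 mM NaCl and 0.001% Tween 20. Compounds were tested at 17 to 0.0003 μM final. Fluorescence (ex 335/em 440 nm) was monitored at 37° C for 5 min, and IC50 was fitted from fractional activity versus inhibitor concentration.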

[2] = 0.07 mg/ml mutant MGL, pH=7.0, read-out: MGL mutant ThermoFluor Kd
[3] = compound concentration measured by qNMR, read-out: MGL mutant ThermoFluor qKd (using qNMR conc.)

Structure (SMILES)	Kd (mutant MGL; [2]) [nM]	Kd (mutant MGL; [3]) [nM]	2-AG accumulation, percent of vehicle control at 1 µM (MGL) [%]	IC50 [1] [nM]
O=C(c1cccc(-c2cccc(F)c2)c1)N1CCC(C2CN(C(=O)c3cscn3)C2)CC1 [Cpd 52, 1-[(3′-Fluorobiphenyl-3-yl)carbonyl]-4-[1-(1,3-thiazol-4-ylcarbonyl)azetidin-3-yl]piperidine]	30.4	32.2	193	71.5
O=C(c1cccc(-c2cccc(F)c2)c1)N1CCC(C2CN(C(=O)c3ccc[nH]3)C2)CC1 [Cpd 53, 1-[(3′-Fluorobiphenyl-3-yl)carbonyl]-4-[1-(1H-pyrrol-2-ylcarbonyl)azetidin-3-yl]piperidine]		33.3	225	46.6
O=C(c1ccc(-c2ccc(C(F)(F)F)s2)cc1)N1CCC(C2CN(C(=O)c3nccs3)C2)CC1 [Cpd 54, 4-[1-(1,3-Thiazol-2-ylcarbonyl)azetidin-3-yl]-1-({4-[5-(trifluoromethyl)thiophen-2-yl]phenyl}carbonyl)piperidine]		1.8	736	< 5
O=C(c1ccc(-c2ccc(C(F)(F)F)s2)cc1)N1CCC(C2CN(C(=O)c3cscn3)C2)CC1 [Cpd 55, 4-[1-(1,3-Thiazol-4-ylcarbonyl)azetidin-3-yl]-1-({4-[5-(trifluoromethyl)thiophen-2-yl]phenyl}carbonyl)piperidine]		2	733	13
O=C(c1ccc(-c2ccc(C(F)(F)F)s2)cc1)N1CCC(C2CN(C(=O)c3ccc[nH]3)C2)CC1 [Cpd 56, 4-[1-(1H-Pyrrol-2-ylcarbonyl)azetidin-3-yl]-1-({4-[5-(trifluoromethyl)thiophen-2-yl]phenyl}carbonyl)piperidine]	5.5	3.3	285	< 5
O=C(c1ccc(Cc2cccc(C(F)(F)F)c2)cc1)N1CCC(C2CN(C(=O)c3nccs3)C2)CC1 [Cpd 57, 4-[1-(1,3-Thiazol-2-ylcarbonyl)azetidin-3-yl]-1-({4-[3-(trifluoromethyl)benzyl]phenyl}carbonyl)piperidine]		5.9	869	17
O=C(c1ccc(Cc2cccc(C(F)(F)F)c2)cc1)N1CCC(C2CN(C(=O)c3cscn3)C2)CC1 [Cpd 58, 4-[1-(1,3-Thiazol-4-ylcarbonyl)azetidin-3-yl]-1-({4-[3-(trifluoromethyl)benzyl]phenyl}carbonyl)piperidine]		6.9	370	< 5
O=C(c1ccc(Cc2cccc(C(F)(F)F)c2)cc1)N1CCC(C2CN(C(=O)c3ccc[nH]3)C2)CC1 [Cpd 59, 4-[1-(1H-Pyrrol-2-ylcarbonyl)azetidin-3-yl]-1-({4-[3-(trifluoromethyl)benzyl]phenyl}carbonyl)piperidine]	20.2	9.4	346	11
Cc1c(C(=O)N2CCC(C3CN(C(=O)c4nccs4)C3)CC2)sc2cc(C(F)(F)F)ccc12 [Cpd 60, 1-{[3-Methyl-6-(trifluoromethyl)-1-benzothiophen-2-yl]carbonyl}-4-[1-(1,3-thiazol-2-ylcarbonyl)azetidin-3-yl]piperidine]	0.8	0.5	508	10
Cc1c(C(=O)N2CCC(C3CN(C(=O)c4ccc[nH]4)C3)CC2)sc2cc(C(F)(F)F)ccc12 [Cpd 62]	1.3	0.6	422	< 5
O=C(c1ccc(Cc2ccc(C(F)(F)F)cc2)cc1)N1CCC(C2CN(C(=O)c3nccs3)C2)CC1 [Cpd 63, 4-[1-(1,3-Thiazol-2-ylcarbonyl)azetidin-3-yl]-1-({4-[4-(trifluoromethyl)benzyl]phenyl}carbonyl)piperidine]		17.4	435	< 5
O=C(c1ccc(Cc2ccc(C(F)(F)F)cc2)cc1)N1CCC(C2CN(C(=O)c3cscn3)C2)CC1 [Cpd 64, 4-[1-(1,3-Thiazol-4-ylcarbonyl)azetidin-3-yl]-1-({4-[4-(trifluoromethyl)benzyl]phenyl}carbonyl)piperidine]		18.9	383	< 5
O=C(c1ccc(Cc2ccc(C(F)(F)F)cc2)cc1)N1CCC(C2CN(C(=O)c3ccc[nH]3)C2)CC1 [Cpd 65, 4-[1-(1H-Pyrrol-2-ylcarbonyl)azetidin-3-yl]-1-({4-[4-(trifluoromethyl)benzyl]phenyl}carbonyl)piperidine]		40.4	241	< 5
O=C(c1ccc2nc(-c3ccccc3)oc2c1)N1CCC(C2CN(C(=O)c3nccs3)C2)CC1 [Cpd 66, 2-Phenyl-6-({4-[1-(1,3-thiazol-2-ylcarbonyl)azetidin-3-yl]piperidin-1-yl}carbonyl)-1,3-benzoxazole]		6.7	889	19.2

Results, then the compound that gave them:

Kd (mutant MGL; [2]) [nM]	Kd (mutant MGL; [3]) [nM]	2-AG accumulation, percent of vehicle control at 1 µM (MGL) [%]	IC50 [1] [nM]	Structure (SMILES)
	6.6	590	66.5	O=C(c1ccc2nc(-c3ccccc3)oc2c1)N1CCC(C2CN(C(=O)c3cscn3)C2)CC1 [Cpd 67, 2-Phenyl-6-({4-[1-(1,3-thiazol-4-ylcarbonyl)azetidin-3-yl]piperidin-1-yl}carbonyl)-1,3-benzoxazole]
	14.5	453	62.1	O=C(c1ccc2nc(-c3ccccc3)oc2c1)N1CCC(C2CN(C(=O)c3ccc[nH]3)C2)CC1 [Cpd 68, 2-Phenyl-6-({4-[1-(1H-pyrrol-2-ylcarbonyl)azetidin-3-yl]piperidin-1-yl}carbonyl)-1,3-benzoxazole]
	1.2	539	< 5	O=C(c1nccs1)N1CC(C2CCN(C(=O)c3sc4cc(C(F)(F)F)ccc4c3Cl)CC2)C1 [Cpd 69, 1-{[3-Chloro-6-(trifluoromethyl)-1-benzothiophen-2-yl]carbonyl}-4-[1-(1,3-thiazol-2-ylcarbonyl)azetidin-3-yl]piperidine]
	0.6	561	8	O=C(c1cscn1)N1CC(C2CCN(C(=O)c3sc4cc(C(F)(F)F)ccc4c3Cl)CC2)C1 [Cpd 70, 1-{[3-Chloro-6-(trifluoromethyl)-1-benzothiophen-2-yl]carbonyl}-4-[1-(1,3-thiazol-4-ylcarbonyl)azetidin-3-yl]piperidine]
	1.2	552	12	O=C(c1ccc[nH]1)N1CC(C2CCN(C(=O)c3sc4cc(C(F)(F)F)ccc4c3Cl)CC2)C1 [Cpd 71, 1-{[3-Chloro-6-(trifluoromethyl)-1-benzothiophen-2-yl]carbonyl}-4-[1-(1H-pyrrol-2-ylcarbonyl)azetidin-3-yl]piperidine]
	2.7	657	17	O=C(c1ccc2c(ccn2-c2ccc(F)cc2)c1)N1CCC(C2CN(C(=O)c3nccs3)C2)CC1 [Cpd 72, 1-(4-Fluorophenyl)-5-({4-[1-(1,3-thiazol-2-ylcarbonyl)azetidin-3-yl]piperidin-1-yl}carbonyl)-1H-indole]
